Laboratory results published in US20240408093A1, “HETEROBIFUNCTIONAL COMPOUNDS AND THEIR USE IN TREATING DISEASE” (HALDA THERAPEUTICS OPCO, INC., priority 2022, published 2024).

Columns and labels:
[1] = biological target: KRAS G12C (Homo sapiens, UniProt P01116, G12C); experiment: KRAS G12C nucleotide exchange assay (SOS1-mediated, HTRF); format: biochemical; set-up: GST-tagged KRAS G12C (amino acids 2-169); settings: 1 hr pre-incubation
Procedure: KRAS target engagement (IC50 determination) was performed using a KRAS G12C nucleotide exchange assay. Specifically, compounds were tested against KRAS G12C in 10-point concentration IC50 mode with 3-fold serial dilution at a starting concentration of 10 μM. ARS1620 was used as a control.
Briefly, GST-tagged KRAS G12C (amino acids 2-169) was mixed with anti-GST Tb antibody (1.5× solution) and 10 μL was delivered to reaction wells. Compounds were delivered using an acoustic dispenser (Echo, Labcyte) and pre-incubated with protein for 1 hr at RT. KRAS/anti-GST Tb Ab/compound mixture was incubated for 1 hour at room temperature. A 3× solution of SOS1 (amino acids 564-1049) and GTP-DY-647P1 (GTP*) was prepared in reaction buffer. A 5 μL aliquot of SOS1/GTP* solution was added to reaction wells to initiate the exchange reaction. No-SOS1 reaction or max compound concentration was used as blank. The final concentrations of KRAS G12C, SOS1, and GTP* were 30 nM, 20 nM, and 0.15 μM, respectively. SOS1 mediated exchange of GDP to GTP-DY-647P was measured using HTRF (Ex/Em=(320-75/665-7.5; 615-8.5)) using an Envision Plate Reader (Perkin Elmer). IC50 determination was performed using a Sigmoidal dose response (variable slope) equation.

[2] = system: HeLa cells (ATCC CCL-2); experiment: Cellular growth inhibition assay, HeLa cells (Example 16); format: cell-based; settings: Homo sapiens, 72 hours, CellTiter-Glo 2.0
[3] = system: HEK293 cells (ATCC CRL-1573); experiment: Cellular growth inhibition assay, HEK293 cells (Example 16); format: cell-based; settings: Homo sapiens, 72 hours, CellTiter-Glo 2.0
[4] = biological target: T1, GSPT1 (Homo sapiens, UniProt P15170+Q96SW2); experiment: GSPT1 HiBiT degradation assay; format: cell-based; settings: HEK293 LgBiT GSPT1 HiBiT cells, 6 hours
T1 construct: host or cells: HEK293 LgBiT / GSPT1 HiBiT CRISPR knock-in
Method in brief: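 HEK293 CRISPR knock-in cells expressing LgBiT and GSPT1-HiBiT were seeded at 1000 cells/well and, after 18-24 h, treated with titrated compound plus endurazine (0.5× final) at 37 °C. Luminescence read after 6 h; loss of signal reflects GSPT1 degradation, giving DC50.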

T1 sequence (P15170 whole entry): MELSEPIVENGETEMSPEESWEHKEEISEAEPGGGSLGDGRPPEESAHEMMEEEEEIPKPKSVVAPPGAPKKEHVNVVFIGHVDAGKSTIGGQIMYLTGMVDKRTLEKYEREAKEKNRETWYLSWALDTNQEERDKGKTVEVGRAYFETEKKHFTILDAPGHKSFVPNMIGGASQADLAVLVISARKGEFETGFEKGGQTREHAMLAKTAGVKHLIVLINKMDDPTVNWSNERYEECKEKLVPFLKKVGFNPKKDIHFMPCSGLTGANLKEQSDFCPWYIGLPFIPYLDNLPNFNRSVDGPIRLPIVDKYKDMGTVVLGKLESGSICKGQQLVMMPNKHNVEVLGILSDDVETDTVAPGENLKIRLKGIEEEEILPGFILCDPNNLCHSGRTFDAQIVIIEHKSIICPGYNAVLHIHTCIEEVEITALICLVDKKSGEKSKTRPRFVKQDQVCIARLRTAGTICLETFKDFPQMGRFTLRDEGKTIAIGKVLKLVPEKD
T1 sequence (Q96SW2 whole entry): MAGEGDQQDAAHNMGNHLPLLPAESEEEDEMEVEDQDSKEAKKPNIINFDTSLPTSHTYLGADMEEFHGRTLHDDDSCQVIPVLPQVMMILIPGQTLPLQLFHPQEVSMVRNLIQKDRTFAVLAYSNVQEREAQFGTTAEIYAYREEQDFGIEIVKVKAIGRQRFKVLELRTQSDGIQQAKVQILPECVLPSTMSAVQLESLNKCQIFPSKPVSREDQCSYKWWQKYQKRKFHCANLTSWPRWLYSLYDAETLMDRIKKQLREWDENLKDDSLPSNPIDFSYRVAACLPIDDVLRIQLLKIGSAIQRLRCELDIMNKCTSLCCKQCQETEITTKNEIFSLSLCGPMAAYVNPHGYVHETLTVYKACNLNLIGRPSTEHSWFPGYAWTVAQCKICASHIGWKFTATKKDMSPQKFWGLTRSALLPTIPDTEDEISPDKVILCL
T1 sequence (Q16531 whole entry partner): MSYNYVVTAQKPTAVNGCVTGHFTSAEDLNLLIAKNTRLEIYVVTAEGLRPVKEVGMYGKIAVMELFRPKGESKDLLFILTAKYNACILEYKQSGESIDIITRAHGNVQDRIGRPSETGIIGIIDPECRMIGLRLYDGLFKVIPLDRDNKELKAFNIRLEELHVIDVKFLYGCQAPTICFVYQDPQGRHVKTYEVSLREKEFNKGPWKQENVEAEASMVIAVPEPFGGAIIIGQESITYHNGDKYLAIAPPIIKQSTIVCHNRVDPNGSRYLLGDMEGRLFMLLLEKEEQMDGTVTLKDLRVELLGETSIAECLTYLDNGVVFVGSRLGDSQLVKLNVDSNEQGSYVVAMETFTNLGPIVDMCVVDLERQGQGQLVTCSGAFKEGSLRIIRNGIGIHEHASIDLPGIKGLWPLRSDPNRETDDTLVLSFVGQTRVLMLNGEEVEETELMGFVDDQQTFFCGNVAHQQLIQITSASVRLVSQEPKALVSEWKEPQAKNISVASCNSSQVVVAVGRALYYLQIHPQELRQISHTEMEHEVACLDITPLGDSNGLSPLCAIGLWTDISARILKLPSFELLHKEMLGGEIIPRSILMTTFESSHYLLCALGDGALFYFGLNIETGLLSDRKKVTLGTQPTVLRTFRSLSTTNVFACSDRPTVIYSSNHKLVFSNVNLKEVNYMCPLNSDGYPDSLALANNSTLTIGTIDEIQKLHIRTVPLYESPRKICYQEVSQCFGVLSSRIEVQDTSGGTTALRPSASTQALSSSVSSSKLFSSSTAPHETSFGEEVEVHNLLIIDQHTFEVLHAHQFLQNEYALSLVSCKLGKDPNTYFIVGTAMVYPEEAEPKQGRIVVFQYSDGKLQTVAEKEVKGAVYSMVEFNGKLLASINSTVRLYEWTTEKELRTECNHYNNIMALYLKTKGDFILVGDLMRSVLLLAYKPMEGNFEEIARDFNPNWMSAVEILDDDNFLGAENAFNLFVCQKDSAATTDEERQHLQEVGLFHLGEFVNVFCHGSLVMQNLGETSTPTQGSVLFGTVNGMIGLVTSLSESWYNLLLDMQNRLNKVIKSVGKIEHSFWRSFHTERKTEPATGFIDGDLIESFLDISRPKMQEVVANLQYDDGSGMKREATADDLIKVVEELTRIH
Sequence of KRAS G12C (P01116 2-169 isoform P01116-2 G12C): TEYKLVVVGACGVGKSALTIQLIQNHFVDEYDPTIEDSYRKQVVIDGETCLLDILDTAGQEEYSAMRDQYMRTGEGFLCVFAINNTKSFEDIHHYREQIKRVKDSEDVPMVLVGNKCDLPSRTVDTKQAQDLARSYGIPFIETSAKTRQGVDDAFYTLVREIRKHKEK

SMILES	IC50 [1]	GI50 [2]	GI50 [3]	DC50 [4]
C=C(COc1ccc(CN2C(=O)CCC(N3Cc4cc(CNC(=O)Nc5ccc(C)c(Cl)c5)ccc4C3=O)C2=O)cc1)C(=O)N1CCN(c2nc(OC[C@H]3CCCN3C)nc3c2CCN(c2cccc4cccc(Cl)c24)C3)C[C@@H]1CC#N (stereo in doubt) [Compound I-44]	100 to 5000 nM	> 10000 nM	> 10000 nM	> 2500 nM
C=C(COc1cc(Cl)cc(NC(=O)NCc2ccc3c(c2)CN(C2CCC(=O)NC2=O)C3=O)c1)C(=O)N1CCN(c2nc(OC[C@@H]3CCCN3C)nc3c2CCN(c2cccc4cccc(Cl)c24)C3)C[C@@H]1CC#N (some centres unmarked) [Compound I-35]	< 100 nM	1500 to 10000 nM	1500 to 10000 nM	> 2500 nM
C=C(CN(C(=O)NCc1ccc2c(c1)CN(C1CCC(=O)NC1=O)C2=O)c1ccc(C)c(Cl)c1)C(=O)Nc1cc(Nc2ncc(-c3cn(C)c4ccccc34)cn2)c(OC)cc1N(C)CCN(C)C (centres unmarked) [Compound I-42]		1500 to 10000 nM	1500 to 10000 nM	> 2500 nM
C=C(COc1cc(Cl)cc(NC(=O)NCc2ccc3c(c2)CN(C2CCC(=O)NC2=O)C3=O)c1)C(=O)N[C@@H]1CN(c2nc(Nc3cn(C)nc3OC)c3ncn(C)c3n2)C[C@H]1F (some centres unmarked) [Compound I-45]		1500 to 10000 nM	< 500 nM	500 to 2500 nM
C=C(COc1cc(Cl)c(OC)cc1NC(=O)NCc1ccc2c(c1)CN(C1CCC(=O)NC1=O)C2=O)C(=O)N1CCN(c2nc(OC[C@@H]3CCCN3C)nc3c2CCN(c2cccc4cccc(Cl)c24)C3)C[C@@H]1CC#N (some centres unmarked) [Compound I-46]	< 100 nM	> 10000 nM	500 to 1500 nM	500 to 2500 nM
C=C(COc1ccc(Cl)cc1NC(=O)NCc1ccc2c(c1)CN(C1CCC(=O)NC1=O)C2=O)C(=O)N[C@@H]1CN(c2nc(Nc3cn(C)nc3OC)c3ncn(C)c3n2)C[C@H]1F (some centres unmarked) [Compound I-47]		500 to 1500 nM	< 500 nM	50 to 500 nM
C=C(COc1cc(NC(=O)NCc2ccc3c(c2)CN(C2CCC(=O)NC2=O)C3=O)cc(C(F)(F)F)c1)C(=O)N1CCN(c2nc(OC[C@@H]3CCCN3C)nc3c2CCN(c2cccc4cccc(Cl)c24)C3)C[C@@H]1CC#N (some centres unmarked) [Compound I-48]	< 100 nM	> 10000 nM	1500 to 10000 nM	500 to 2500 nM
C=C(COc1cc(Cl)cc(NC(=O)NCc2ccc3c(c2)CN(C2CCC(=O)NC2=O)C3=O)c1)C(=O)N1C[C@H](COc2nc(Nc3cnn(C)c3)nc3[nH]cc(Cl)c23)[C@@H](OC)C1 (some centres unmarked) [Compound I-54]		1500 to 10000 nM	500 to 1500 nM	< 50 nM
C=C(COc1cc(Cl)cc(NC(=O)NCc2ccc3c(c2)CN(C2CCC(=O)NC2=O)C3=O)c1)C(=O)Nc1cccc(Oc2nc(Nc3ccc(N4CCN(C)CC4)cc3)nc3ccsc23)c1 (centres unmarked) [Compound I-55]		1500 to 10000 nM	500 to 1500 nM	50 to 500 nM
C=C(COc1cc(Cl)cc(NC(=O)NCc2ccc3c(c2)CN(C2CCC(=O)NC2=O)C3=O)c1)C(=O)Nc1cc(Nc2nccc(-c3cn(C)c4ccccc34)n2)c(OC)cc1N(C)CCN(C)C (centres unmarked) [Compound I-59]		1500 to 10000 nM	< 500 nM	50 to 500 nM
C=C(COc1c(Cl)cccc1NC(=O)NCc1ccc2c(c1)CN(C1CCC(=O)NC1=O)C2=O)C(=O)Nc1cc(Nc2nccc(-c3cn(C)c4ccccc34)n2)c(OC)cc1N(C)CCN(C)C (centres unmarked) [Compound I-60]		1500 to 10000 nM	500 to 1500 nM	500 to 2500 nM
C=C(COc1cc(Cl)cc(NC(=O)NCc2ccc3c(c2)CN(C2CCC(=O)NC2=O)C3=O)c1)C(=O)Nc1cccc(-c2cccc3cnc(Nc4ccc(N5CCN(CCO)CC5)c(F)c4F)nc23)c1 (centres unmarked) [Compound I-61]		1500 to 10000 nM	< 500 nM	50 to 500 nM
C=C(COc1c(Cl)cccc1NC(=O)NCc1ccc2c(c1)CN(C1CCC(=O)NC1=O)C2=O)C(=O)N[C@@H]1CN(c2nc(Nc3cn(C)nc3OC)c3ncn(C)c3n2)C[C@H]1F (some centres unmarked) [Compound I-69]		500 to 1500 nM	< 500 nM	50 to 500 nM
C=C(CN(C(=O)NCc1ccc2c(c1)CN(C1CCC(=O)NC1=O)C2=O)c1ccc(C)c(Cl)c1)C(=O)Nc1cccc(Oc2nc(Nc3ccc(N4CCN(C)CC4)cc3)nc3ccsc23)c1 (centres unmarked) [Compound I-70]		> 10000 nM	1500 to 10000 nM	> 2500 nM
C=C(CN(C(=O)NCc1ccc2c(c1)CN(C1CCC(=O)NC1=O)C2=O)c1ccc(C)c(Cl)c1)C(=O)N1C[C@@H](COc2nc(Nc3cnn(C)c3)nc3[nH]cc(Cl)c23)[C@H](OC)C1 (some centres unmarked) [Compound I-71]		> 10000 nM	500 to 1500 nM	500 to 2500 nM
C=C(COC(=O)NCCc1ccc(Cl)cc1NC(=O)NCc1ccc2c(c1)CN(C1CCC(=O)NC1=O)C2=O)C(=O)N1CCN(c2nc(OC[C@@H]3CCCN3C)nc3c2CCN(c2cccc4cccc(Cl)c24)C3)C[C@@H]1CC#N (some centres unmarked) [Compound I-78]	< 100 nM		> 10000 nM	500 to 2500 nM
C=C(COC(=O)NCCCc1ccc(Cl)cc1NC(=O)NCc1ccc2c(c1)CN(C1CCC(=O)NC1=O)C2=O)C(=O)N1CCN(c2nc(OC[C@@H]3CCCN3C)nc3c2CCN(c2cccc4cccc(Cl)c24)C3)C[C@@H]1CC#N (some centres unmarked) [Compound I-79]	< 100 nM		> 10000 nM	500 to 2500 nM
C=C(COc1ccccc1NC(=O)NCc1ccc2c(c1)CN(C1CCC(=O)NC1=O)C2=O)C(=O)N1CCN(c2nc(OC[C@H]3CCCN3C)nc3c2CCN(c2cccc4cccc(Cl)c24)C3)C[C@H]1CC#N (some centres unmarked) [Compound I-80]	< 100 nM		> 10000 nM	> 2500 nM
C=C(CN1C(=O)CCC(N2Cc3cc(CNC(=O)Nc4ccc(C)c(Cl)c4)ccc3C2=O)C1=O)C(=O)Nc1cc(Nc2ncc(-c3cn(C)c4ccccc34)cn2)c(OC)cc1N(C)CCN(C)C (centres unmarked) [Compound I-87]		< 500 nM	< 500 nM	50 to 500 nM
C=C(COC(=O)n1c(CNc2nc(N3CCNCC3)nc3c(Br)cnn23)nc2cc(C)ccc21)C(=O)N1C[C@H](COc2nc(Nc3cnn(C)c3)nc3[nH]cc(Cl)c23)[C@@H](OC)C1 [Compound V-4]		500 to 1500 nM	< 500 nM	
C=C(COc1cc(-c2ccccn2)ccc1CNc1nc(N[C@H](CC)CO)nc2c1ncn2C(C)C)C(=O)N[C@@H]1CN(c2nc(Nc3cn(C)nc3OC)c3ncn(C)c3n2)C[C@H]1F [II-183]		< 500 nM	< 500 nM	
C=C(COC(=O)N1CCN(c2nc(NCc3nc4cc(C)ccc4[nH]3)n3ncc(Br)c3n2)CC1)C(=O)N1C[C@H](COc2nc(Nc3cnn(C)c3)nc3[nH]cc(Cl)c23)[C@@H](OC)C1 [II-185]		500 to 1500 nM	< 500 nM	
C=C(COc1cc(-c2ccccn2)ccc1CNc1nc(N[C@H](CC)CO)nc2c1ncn2C(C)C)C(=O)N1CCN(c2nc(OC[C@@H]3CCCN3C)nc3c2CCN(c2cccc4cccc(Cl)c24)C3)C[C@@H]1CC#N [II-186]	< 100 nM	1500 to 10000 nM	500 to 1500 nM	
C=C(CN1CCN(c2nc(NCc3nc4cc(C)ccc4[nH]3)n3ncc(Br)c3n2)CC1)C(=O)Nc1cc(Nc2nccc(-c3cn(C)c4ccccc34)n2)c(OC)cc1N(C)CCN(C)C [II-188]		< 500 nM	< 500 nM	
C=C(CN1CCN(c2nc(NCc3nc4cc(C)ccc4[nH]3)n3ncc(Br)c3n2)CC1)C(=O)N1CCN(c2nc(OC[C@@H]3CCCN3C)nc3c2CCN(c2cccc4cccc(Cl)c24)C3)C[C@@H]1CC#N [II-190]	< 100 nM	< 500 nM	< 500 nM	
C=C(CN1CCN(c2nc(NCc3nc4cc(C)ccc4[nH]3)n3ncc(Br)c3n2)CC1)C(=O)Nc1cccc(-c2cccc3cnc(Nc4ccc(N5CCN(CCO)CC5)c(F)c4F)nc23)c1 [II-191]		< 500 nM	< 500 nM	
